Key:
[1] = tested on: primary human lung fibroblasts; experiment: Inhibition of type I collagen secretion by primary human lung fibroblasts, western blot of cellular medium; format: cell-based; conditions: two days; for secretion of type I collagen polypeptides COLα1(I) and COLα2(I) into the cellular medium: western blot
Experimental: Several chemical compounds were identified in this screen and tested for their ability to inhibit collagen production by primary human lung fibroblasts in culture. Lung fibroblasts are responsible for development of lung fibrosis. The compounds were added in a single dose of 100 μM to the lung fibroblasts, except compound 60D17, which was added at 10 μM. Two days after the addition of the compounds, the secretion of type I collagen into the cellular medium was analyzed by western blot. Both polypeptides which form type I collagen, COLα1(I) and COLα2(I), were analyzed.
Here, COLα1 represents the α1 polypeptide of type I collagen, COLα2 represents the α2 polypeptide of type I collagen, and FIB represents fibronectin, which was the control.

[2] = tested on: lung fibroblasts; experiment: Type I collagen expression of lung fibroblasts at therapeutic (nM) concentrations, western blot; format: cell-based, human
Experimental: In lung fibrosis the process of excessive collagen accumulation is similar to the liver, but the cells responsible for collagen synthesis are lung fibroblasts. Therefore, I tested the potency of 60D17 at therapeutic concentrations in lung fibroblasts before 60D17 was tested at higher concentrations in these cells.
Lane 4 represents untreated control cells.

[3] = Initial animal studies, tolerability in rats; format: in vivo
[4] = tested on: rat liver slices; experiment: Collagen expression in precision cut rat liver slices, western blot; format: cell-based; conditions: 1 μM, 4 days, four slices
Experimental: In these experiments 60D17 was added to four different slices (lanes 2-5) […] at 1 μM concentration. The expression of both collagen α1(I) polypeptide, resolved here as procollagen (PRO-COLL1A1), and processed mature collagen (COLL 1A1) were measured by western blot. Lanes 1 and 6 were untreated control. Actin (ACT) was used as the loading control.
Precision cut liver slices were prepared from rat liver with a thickness of 350 μm and diameter of 8 mm. These slices were cultured in vitro for several days. Cutting the liver represents an injury thereto. In response to this injury, the slices initiate profibrotic changes. The response is similar to the fibrotic response of the intact organ, because the slices retain all different cell types and proper architecture of the organ. Thus, they mimic fibrosis initiation of the whole liver. Accordingly, this is a useful model to test the efficacy of 60D17 in blocking the profibrotic reaction.

[5] = tested on: hepatic stellate cells (HSCs); experiment: Inhibition of collagen α1(I) polypeptide synthesis in cultured hepatic stellate cells (HSCs), western blot; format: cell-based, rat; conditions: added at day 3, measured at day 7
Text: HSCs are liver cells responsible for collagen synthesis in hepatic fibrosis. […] In fibrotic livers, HSCs increase type I collagen expression 50-100 fold. Similar changes can be reproduced when HSCs are isolated from rat livers and cultured in vitro.
Three days after isolation and culturing, the HSCs still retain their quiescent phenotype and show little collagen expression. At day 5 after isolation the first significant increase in collagen expression becomes evident. After 7-8 days of culturing type I collagen expression increases 50-100 fold and attains its maximal level.
I used this model to test the efficacy of 60D17 in inhibiting collagen expression, because it is relevant to liver fibrosis. 60D17 was added at 100 nM and 250 nM concentrations to HSCs at day 3 in the culture. The cells were cultured until day 7 and the level of collagen α1(I) polypeptide was measured by western blot.
Lane 1 contained untreated cells. Lane 2 contained HSCs treated with 250 nM of 60D17. Lane 3 contained HSCs treated with 100 nM of 60D17. The panel on the left represents the cellular levels of collagen α1(I) polypeptide measured by western blot. Actin (ACT) was used as the loading control. The right panel represents the collagen α1(I) polypeptide level in the cellular medium.

[6] = tested on: collagen synthesis; conditions: cited from earlier work

SMILES | antifibrotic activity (collagen production by human lung fibroblasts, FIG. 1) ([1]; single dose of 100 μM) | secretion of type I collagen polypeptides COLα1(I) and COLα2(I) into the cellular medium ([1]; single dose of 100 μM) | further results
NCc1ccc(N2CCOCC2)cc1 [1E10] | posses antifibrotic activity | dramatically reduced excretion of both collagen polypeptides | –
O=c1c2oc3cccc4c3n(c=2c(=O)c2ccccc12)CCC4 [11M14] | posses antifibrotic activity | reduced production of α1(I) polypeptide more than that of α2 polypeptide | –
Cc1cccn2c(=O)c3cc(C(=O)N4CCN(c5ccccc5)CC4)n(C)c3nc12 [13B8] | posses antifibrotic activity | reduced production of α1(I) polypeptide more than that of α2 polypeptide | –
COC(=O)c1ccc2c3c([nH]c2c1)CCCC3 [13F20] | posses antifibrotic activity | dramatically reduced excretion of both collagen polypeptides | –
Cc1cc(C)nc(-n2nc(-c3ccc4ccccc4c3)cc2O)n1 [45F6] | posses antifibrotic activity | dramatically reduced excretion of both collagen polypeptides | –
COc1ccc(N2CCOCC2)c(NC(=O)C(C)(C)C)c1 [45I22] | posses antifibrotic activity | dramatically reduced excretion of both collagen polypeptides | –
Cc1cc(C)nc(-n2[nH]c3nccc(-c4ccc5ccccc5c4)c3c2=O)n1 [49L20] | posses antifibrotic activity | reduced production of α1(I) polypeptide more than that of α2 polypeptide | –
CCN1CCCC1CNC(=O)c1ccc(S(=O)(=O)N2CCOCC2)cc1 (stereo not drawn) [57N21] | posses antifibrotic activity | reduced production of α1(I) polypeptide more than that of α2 polypeptide | –
Cn1c(C(=O)Nc2ccccc2)cc2c(=O)n3ccccc3nc21 [60D17-G] | – | – | synthesis of type I collagen ([2]; nM concentrations, cells not given): interfered with the synthesis of type I collagen at nM concentrations
Cc1cccn2c(=O)c3cc(C(=O)Nc4cccnc4)n(C)c3nc12 [60D17] | – | – | antifibrotic activity (collagen production by human lung fibroblasts, FIG. 1) ([1]; single dose of 10 μM): posses antifibrotic activity; secretion of type I collagen polypeptides COLα1(I) and COLα2(I) into the cellular medium ([1]; single dose of 10 μM): dramatically reduced excretion of both collagen polypeptides; type I collagen expression ([2]; 50 nM): substantially ineffective; synthesis of collagen α1(I) polypeptide ([2]; 100 nM): smaller effect; synthesis of collagen α2(I) polypeptide ([2]; 100 nM): dramatically inhibited synthesis of collagen α2(I) polypeptide; production of both polypeptides comprising type I collagen ([2]; 500 nM, 18 h): almost completely inhibited; tolerability in rats [3]: well tolerated; expression of collagen α1(I) polypeptide in rat liver slices [4]: significantly inhibited expression of collagen α1(I) polypeptide; collagen α1(I) polypeptide expression in HSCs ([5]; 100 nM): significantly inhibited collagen production; collagen α1(I) polypeptide expression in HSCs ([5]; 250 nM): almost completely blocked the increase in collagen expression
COC(=O)CNC(=O)c1cc2c(=O)n3cccc(C)c3nc2n1C [60J13] | posses antifibrotic activity | dramatically reduced excretion of both collagen polypeptides | –
CN(C)c1cccc(-c2nn3c(-c4ccccn4)nnc3s2)c1 [60M4] | posses antifibrotic activity | reduced α2 polypeptide more than α1 polypeptide | –
CC(CCO)Nc1nc2c(c(=O)n(C)c(=O)n2C)n1Cc1ccccc1F (stereo not drawn) [65N3] | posses antifibrotic activity | dramatically reduced excretion of both collagen polypeptides | –
CCSc1nnc2c(n1)OC(c1ccncc1)=Nc1ccccc1-2 [67C17] | posses antifibrotic activity | reduced α2 polypeptide more than α1 polypeptide | –
O=S(=O)(c1cccc2ccccc12)N1CCCNCC1 [ML-7] | – | – | collagen synthesis [6]: interferes with collagen synthesis

Reference: patent US8729090B1, “Compositions and methods for inhibiting collagen production” (Florida State University Research Foundation, Inc., priority 2011, dated 2014)
